Measured values taken from patent publication US6461997B1, “Triazole sulfones having herbicidal activity” (Monsanto Technology LLC, priority 1999, dated 2002).

The compounds below were run on GALAP (catchweed bedstraw) (assay: Pre-emergence herbicidal activity, cool season). Details: lowest tested rate with 80% or greater inhibition; rates 300, 100, 30, 10 g/ha; about 14 days.
Format: in vivo, Galium aparine
Method in brief: (§1)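 Seeds sown in sterilised fertilised topsoil received surface-applied compound in 50:50 acetone/water, typically at 300, 100, 30 and 10 g/ha, then greenhouse-grown at 30/21° C (warm-season species) or 18/13° C (cool-season species). Percent inhibition versus untreated plants was scored at about 14 days, giving GR80; an asterisk marks activity short of 80% at the top rate.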

Row | Compound | Pre-emergence activity GR80, GALAP [g/ha]
1 | CCN(CC)C(=O)n1cnc(S(=O)(=O)C(F)(F)F)n1 [Example 2] | 100
2 | CCN(CC)C(=O)n1cnc(S(=O)(=O)C(F)(F)C(F)F)n1 [Example 16] | 100

What follows are compounds tested on LAMPU (purple deadnettle) (assay: Pre-emergence herbicidal activity, cool season). Details: lowest tested rate with 80% or greater inhibition; rates 300, 100, 30, 10 g/ha; about 14 days.
Format: in vivo, Lamium purpureum
Method in brief: as §1

Row | Compound | Pre-emergence activity GR80, LAMPU [g/ha]
3 | CCN(CC)C(=O)n1cnc(S(=O)(=O)C(F)(F)F)n1 [Example 2] | 10
4 | CCN(CC)C(=O)n1cnc(S(=O)(=O)C(F)(F)C(F)F)n1 [Example 16] | 100

Each compound was assayed on SORHA (johnsongrass (seedling)) (assay: Pre-plant incorporated (PPI) herbicidal activity, warm season). Details: PPI application, 10 g/ha.
Format: in vivo, Sorghum halepense
Description: (§2) In another set of tests, the pre-plant incorporated (PPI) activity of compounds of this invention was evaluated on the same species as for the pre-emergence tests described above. In the PPI tests the following procedure, designed to simulate PPI application, was used.
(§3) A pre-prepared topsoil mixture (described above) was placed in a pot and compacted to a depth of 1.0 to 1.25 cm from the top of the pot. Seeds of each of several monocotyledonous and dicotyledonous annual plant species were placed on top of the soil. A sufficient quantity of soil to cover the seeds and level fill the pot was weighed into an open container. A known amount of the test compound was dissolved or suspended in an organic solvent and applied by spraying to this cover soil. The cover soil was thoroughly mixed to distribute the test compound throughout the cover soil, and was then applied as a cover layer over the seeds. Untreated soil was used as a cover layer for control pots. After treatment the plants were placed in a greenhouse where they received 0.64 cm of overhead irrigation. All subsequent watering consisted of a light overhead mist and/or subirrigation as needed for germination and growth. Tables 9 and 10 below relate to warm season plant species which were placed after pre-emergence treatment in a greenhouse with a 30/21° C. day/night temperature regime. Tables 11 and 12 below relates to cool season plant species placed after pre-emergence treatment in a greenhouse or growth chamber with an 18/13° C. day/night temperature regime. Only the compounds of Examples 1, 6, 8, 11, 13 and 15-20 were included in PPI tests.
(§4) Approximately 14 days after planting and treating, the plants were observed and herbicidal efficacy recorded as percent inhibition by comparison with untreated plants.

Row | Compound | Percent inhibition SORHA [%]
5 | CCN(CC)C(=O)n1cnc(S(=O)(=O)C(F)(F)C(F)F)n1 [Example 16] | 0

Same assay, conditions: PPI application, 30 g/ha

Row | Compound | Percent inhibition SORHA [%]
6 | CCN(CC)C(=O)n1cnc(S(=O)(=O)C(F)(F)F)n1 [Example 2] | 70
7 | CCN(CC)C(=O)n1cnc(S(=O)(=O)C(F)(F)C(F)F)n1 [Example 16] | 70

Same assay, conditions: PPI application, 100 g/ha

Row | Compound | Percent inhibition SORHA [%]
8 | CCN(CC)C(=O)n1cnc(S(=O)(=O)C(F)(F)F)n1 [Example 2] | 80
9 | CCN(CC)C(=O)n1cnc(S(=O)(=O)C(F)(F)C(F)F)n1 [Example 16] | 100

Same assay, conditions: PPI application, 300 g/ha

Row | Compound | Percent inhibition SORHA [%]
10 | CCN(CC)C(=O)n1cnc(S(=O)(=O)C(F)(F)F)n1 [Example 2] | 100
11 | CCN(CC)C(=O)n1cnc(S(=O)(=O)C(F)(F)C(F)F)n1 [Example 16] | 100

Same assay, conditions: PPI application, 900 g/ha

Row | Compound | Percent inhibition SORHA [%]
12 | CCN(CC)C(=O)n1cnc(S(=O)(=O)C(F)(F)F)n1 [Example 2] | 100
13 | CCN(CC)C(=O)n1cnc(S(=O)(=O)C(F)(F)C(F)F)n1 [Example 16] | 100

Same assay, conditions: pre-plant incorporated; lowest tested rate with 80% or greater inhibition; about 14 days

Row | Compound | PPI activity GR80, SORHA [g/ha]
14 | CCN(CC)C(=O)n1cnc(S(=O)(=O)C(F)(F)C(F)F)n1 [Example 16] | 10

What follows are compounds tested on BRAPP (broadleaf signalgrass) in the same assay as above. Details: PPI application, 10 g/ha.
Format: in vivo, Brachiaria platyphylla
Description: as §2, §3, §4

Row | Compound | Percent inhibition BRAPP [%]
15 | CCN(CC)C(=O)n1cnc(S(=O)(=O)C(F)(F)C(F)F)n1 [Example 16] | 20

Same assay, conditions: PPI application, 30 g/ha

Row | Compound | Percent inhibition BRAPP [%]
16 | CCN(CC)C(=O)n1cnc(S(=O)(=O)C(F)(F)F)n1 [Example 2] | 80
17 | CCN(CC)C(=O)n1cnc(S(=O)(=O)C(F)(F)C(F)F)n1 [Example 16] | 60

Same assay, conditions: PPI application, 100 g/ha

Row | Compound | Percent inhibition BRAPP [%]
18 | CCN(CC)C(=O)n1cnc(S(=O)(=O)C(F)(F)F)n1 [Example 2] | 50
19 | CCN(CC)C(=O)n1cnc(S(=O)(=O)C(F)(F)C(F)F)n1 [Example 16] | 100

Same assay, conditions: PPI application, 300 g/ha

Row | Compound | Percent inhibition BRAPP [%]
20 | CCN(CC)C(=O)n1cnc(S(=O)(=O)C(F)(F)F)n1 [Example 2] | 90
21 | CCN(CC)C(=O)n1cnc(S(=O)(=O)C(F)(F)C(F)F)n1 [Example 16] | 100

Same assay, conditions: PPI application, 900 g/ha

Row | Compound | Percent inhibition BRAPP [%]
22 | CCN(CC)C(=O)n1cnc(S(=O)(=O)C(F)(F)F)n1 [Example 2] | 70
23 | CCN(CC)C(=O)n1cnc(S(=O)(=O)C(F)(F)C(F)F)n1 [Example 16] | 100

Same assay, conditions: pre-plant incorporated; lowest tested rate with 80% or greater inhibition; about 14 days

Row | Compound | PPI activity GR80, BRAPP [g/ha]
24 | CCN(CC)C(=O)n1cnc(S(=O)(=O)C(F)(F)C(F)F)n1 [Example 16] | 10

The compounds below were run on LAMPU (purple deadnettle) (assay: Pre-plant incorporated (PPI) herbicidal activity, cool season). Details: pre-plant incorporated; lowest tested rate with 80% or greater inhibition; about 14 days.
Format: in vivo, Lamium purpureum
Description: as §2, §3, §4

Row | Compound | PPI activity GR80, LAMPU [g/ha]
25 | CCN(CC)C(=O)n1cnc(S(=O)(=O)C(F)(F)C(F)F)n1 [Example 16] | 10

Same assay, conditions: weed, PPI application, 10 g/ha

Row | Compound | Percent inhibition LAMPU [%]
26 | CCN(CC)C(=O)n1cnc(S(=O)(=O)C(F)(F)C(F)F)n1 [Example 16] | 50

Same assay, conditions: weed, PPI application, 30 g/ha

Row | Compound | Percent inhibition LAMPU [%]
27 | CCN(CC)C(=O)n1cnc(S(=O)(=O)C(F)(F)F)n1 [Example 2] | 30
28 | CCN(CC)C(=O)n1cnc(S(=O)(=O)C(F)(F)C(F)F)n1 [Example 16] | 80

Same assay, conditions: weed, PPI application, 100 g/ha

Row | Compound | Percent inhibition LAMPU [%]
29 | CCN(CC)C(=O)n1cnc(S(=O)(=O)C(F)(F)F)n1 [Example 2] | 70
30 | CCN(CC)C(=O)n1cnc(S(=O)(=O)C(F)(F)C(F)F)n1 [Example 16] | 90

Same assay, conditions: weed, PPI application, 300 g/ha

Row | Compound | Percent inhibition LAMPU [%]
31 | CCN(CC)C(=O)n1cnc(S(=O)(=O)C(F)(F)F)n1 [Example 2] | 95
32 | CCN(CC)C(=O)n1cnc(S(=O)(=O)C(F)(F)C(F)F)n1 [Example 16] | 80

Same assay, conditions: weed, PPI application, 900 g/ha

Row | Compound | Percent inhibition LAMPU [%]
33 | CCN(CC)C(=O)n1cnc(S(=O)(=O)C(F)(F)F)n1 [Example 2] | 100
34 | CCN(CC)C(=O)n1cnc(S(=O)(=O)C(F)(F)C(F)F)n1 [Example 16] | 90

The compounds below were run on AGSST (creeping bentgrass) in the same assay as above. Details: pre-plant incorporated; lowest tested rate with 80% or greater inhibition; about 14 days.
Format: in vivo, Agrostis stolonifera
Description: as §2, §3, §4

Row | Compound | PPI activity GR80, AGSST [g/ha]
35 | CCN(CC)C(=O)n1cnc(S(=O)(=O)C(F)(F)C(F)F)n1 [Example 16] | 10

Same assay, conditions: weed, PPI application, 10 g/ha

Row | Compound | Percent inhibition AGSST [%]
36 | CCN(CC)C(=O)n1cnc(S(=O)(=O)C(F)(F)C(F)F)n1 [Example 16] | 100

Same assay, conditions: weed, PPI application, 30 g/ha

Row | Compound | Percent inhibition AGSST [%]
37 | CCN(CC)C(=O)n1cnc(S(=O)(=O)C(F)(F)F)n1 [Example 2] | 100
38 | CCN(CC)C(=O)n1cnc(S(=O)(=O)C(F)(F)C(F)F)n1 [Example 16] | 100

Same assay, conditions: weed, PPI application, 100 g/ha

Row | Compound | Percent inhibition AGSST [%]
39 | CCN(CC)C(=O)n1cnc(S(=O)(=O)C(F)(F)F)n1 [Example 2] | 99
40 | CCN(CC)C(=O)n1cnc(S(=O)(=O)C(F)(F)C(F)F)n1 [Example 16] | 100

Same assay, conditions: weed, PPI application, 300 g/ha

Row | Compound | Percent inhibition AGSST [%]
41 | CCN(CC)C(=O)n1cnc(S(=O)(=O)C(F)(F)F)n1 [Example 2] | 100
42 | CCN(CC)C(=O)n1cnc(S(=O)(=O)C(F)(F)C(F)F)n1 [Example 16] | 100

Same assay, conditions: weed, PPI application, 900 g/ha

Row | Compound | Percent inhibition AGSST [%]
43 | CCN(CC)C(=O)n1cnc(S(=O)(=O)C(F)(F)F)n1 [Example 2] | 100
44 | CCN(CC)C(=O)n1cnc(S(=O)(=O)C(F)(F)C(F)F)n1 [Example 16] | 100
